Conditions: Liquid; for mass density: 298.15 K, 101.33 kPa, Vibrating tube method; for vapor or sublimation pressure: Ebulliometric method (Recirculating still)

C=C1CC/C=C(\C)CC[C@@H]2[C@@H]1CC2(C)C
Conditions	mass density [kg/m3]	vapor or sublimation pressure [kPa]
–	896.8	–
370.33 K	–	0.51
380.5 K	–	0.84
395.45 K	–	1.63
420.02 K	–	4.31
435.58 K	–	7.51
454.18 K	–	13.85
464.9 K	–	19.18
474.02 K	–	24.96
480.05 K	–	29.55
491.45 K	–	40.33
502.53 K	–	53.62
512.49 K	–	68.83
522.97 K	–	88.4
528.78 K	–	101.33

CC1=CCC2C(C1)C2(C)C (centres undefined) [3,7,7-trimethylbicyclo[4.1.0]hept-3-ene]
Conditions	mass density [kg/m3]	vapor or sublimation pressure [kPa]
–	863.8	–
356.07 K	–	5.32
378.03 K	–	14.5
388.7 K	–	20.46
391.9 K	–	22.59
396.66 K	–	26.61
405.49 K	–	34.54
412.42 K	–	42.81
416.18 K	–	47.76
424.04 K	–	59.53
426.24 K	–	63.19
430.64 K	–	70.97
433.68 K	–	76.91
436.32 K	–	82.05
439.47 K	–	89.96
442.61 K	–	96.43
444.44 K	–	101.33

Cc1ccc(C(C)C)cc1 [1-(1-methylethyl)-4-methylbenzene]
Conditions	mass density [kg/m3]	vapor or sublimation pressure [kPa]
–	853.2	–
450.28 K	–	101.33
